In the PolyMetriX glass transition set one finds glass transition temperature data, which are given here for 48 compounds.

On to `*C(=O)Nc1cc(C(c2cc(C)c(C)c(NC(=O)c3ccc4c(c3)C(=O)N(c3cccc5c(N6C(=O)c7ccc(*)cc7C6=O)cccc35)C4=O)c2)(C(F)(F)F)C(F)(F)F)cc(C)c1C` (repeat unit), for which the glass transition temperature was 250.00 °C. For `*C(=O)Nc1ccc(/N=N/c2ccc([N+](=O)[O-])cc2)c(NC(=O)c2ccc3c(c2)C(=O)N(c2c(C)cc(-c4cc(C)c(N5C(=O)c6ccc(*)cc6C5=O)c(C)c4)cc2C)C3=O)c1` (repeat unit), the glass transition temperature stood at 278.00 °C. `*C(=O)Nc1ccc(C(c2ccc(NC(=O)c3ccc4c(c3)C(=O)N(c3c(C)cc(-c5cc(C)c(N6C(=O)c7ccc(*)cc7C6=O)c(C)c5)cc3C)C4=O)cc2)(C(F)(F)F)C(F)(F)F)cc1` (repeat unit) registered a glass transition temperature of 318.00 °C. The compound `*C(=O)Oc1c(C)cc(C(c2cc(C)c(OC(=O)c3ccc4c(c3)C(=O)N(c3c(C)cc(-c5cc(C)c(N6C(=O)c7ccc(*)cc7C6=O)c(C)c5)cc3C)C4=O)c(C)c2)(C(F)(F)F)C(F)(F)F)cc1C` (repeat unit) yielded a glass transition temperature of 327.00 °C. In turn, `*C(=O)Oc1ccc(C(c2ccc(OC(=O)c3ccc4c(c3)C(=O)N(c3c(C)cc(-c5cc(C)c(N6C(=O)c7ccc(*)cc7C6=O)c(C)c5)cc3C)C4=O)cc2)(C(F)(F)F)C(F)(F)F)cc1` (repeat unit) came in with a glass transition temperature of 335.00 °C. In turn, `*C(=O)c1ccc2c(c1)C(=O)N(c1cc(Oc3c(C)cc(-c4cc(C)c(Oc5cc(N6C(=O)c7ccc(*)cc7C6=O)cc(C(F)(F)F)c5)c(C)c4)cc3C)cc(C(F)(F)F)c1)C2=O` (repeat unit) yielded a glass transition temperature of 265.40 °C. Next, `*C(=O)c1ccc2c(c1)C(=O)N(c1ccc(Cc3ccc(Cc4cccc(N5C(=O)c6ccc(*)cc6C5=O)c4)cc3)cc1)C2=O` (repeat unit): 317.00 °C; `*CC(O)COc1c(C)cc(C(C)(C)c2cc(C)c(OCC(O)COc3c(C)cc(S(=O)(=O)c4cc(C)c(O*)c(C)c4)cc3C)c(C)c2)cc1C` (repeat unit): 145.00 °C. Regarding `*CC(O)COc1c(C)cc(C(C)(C)c2cc(C)c(OCC(O)COc3ccc(S(=O)(=O)c4ccc(O*)cc4)cc3)c(C)c2)cc1C` (repeat unit), the glass transition temperature worked out at 145.00 °C. As for `*CC(O)COc1ccc(C(C)(C)c2ccc(OCC(O)COc3c(C)cc(C(C)(C)c4cc(C)c(O*)c(C)c4)cc3C)cc2)cc1` (repeat unit), the glass transition temperature amounted to 100.00 °C. In the case of `*CC(O)COc1ccc(S(=O)(=O)c2ccc(OCC(O)COc3c(C)cc(S(=O)(=O)c4cc(C)c(O*)c(C)c4)cc3C)cc2)cc1` (repeat unit), the glass transition temperature was determined as 145.00 °C. To `*CC/C(=C(/*)c1ccccc1)c1ccccc1` (repeat unit) belongs 120.50 °C.

Compound `*OS(=O)(=O)c1cc(C)c(*)c(C)c1` (repeat unit) registered a glass transition temperature of 153.00 °C. On to `*O[Si](C)(C)CC[Si](C)(C)Oc1c(C)cc(-c2cc(C)c(*)c(C)c2)cc1C` (repeat unit), for which the glass transition temperature was 55.00 °C. The compound `*O[Si](C)(C)O[Si](C)(C)O[Si](C)(C)Oc1c(C)cc(-c2cc(C)c(*)c(C)c2)cc1C` (repeat unit) registered a glass transition temperature of 14.00 °C. For the compound `*Oc1c(Br)cc(C(C)(C)c2cc(Br)c(OC(=O)c3ccc(OCCCCCCCCCCOc4ccc(C(*)=O)cc4)cc3)c(Br)c2)cc1Br` (repeat unit), the glass transition temperature is 128.00 °C. As to `*Oc1c(C)cc(-c2cc(C)c(OC(=O)CCCCCCCCC(*)=O)c(C)c2)cc1C` (repeat unit), the glass transition temperature was 57.00 °C. Next, `*Oc1c(C)cc(-c2cc(C)c(Oc3ccc(C(=O)c4ccc(*)cc4)cc3)c(C)c2)cc1C` (repeat unit): 246.63 °C. For the compound `*Oc1c(C)cc(C(C)(C)c2cc(C)c(OC(=O)CCCCCCCCC(*)=O)c(C)c2)cc1C` (repeat unit), the glass transition temperature was 45.00 °C. For the compound `*Oc1c(C)cc(C(C)(C)c2cc(C)c(OC(=O)c3cccc(C(*)=O)c3)c(C)c2)cc1C` (repeat unit), the glass transition temperature was 187.00 °C.

Compound `*Oc1cc(C(C)(C)C)c(Oc2ccc(C(=O)Nc3c(C)cc(C(C)(C)c4cc(C)c(NC(=O)c5ccc(*)cc5)c(C)c4)cc3C)cc2)cc1C(C)(C)C` (repeat unit) returned a glass transition temperature of 295.00 °C. As for `*c1c(C)cc(-c2cc(C)c(N3C(=O)c4ccc(-c5ccc6c(c5)C(=O)N(*)C6=O)cc4C3=O)c(C)c2)cc1C` (repeat unit), the glass transition temperature was found to be 285.00 °C. Regarding `*c1c(C)cc(-c2cc(C)c(N3C(=O)c4ccc(S(=O)(=O)c5ccc6c(c5)C(=O)N(*)C6=O)cc4C3=O)c(C)c2)cc1C` (repeat unit), the glass transition temperature was found to be 290.00 °C. Compound `*c1c(C)cc(C(c2cccnc2)c2cc(C)c(N3C(=O)CC(Nc4ccc(NC5CC(=O)N(*)C5=O)cc4)C3=O)c(C)c2)cc1C` (repeat unit) yielded a glass transition temperature of 231.00 °C. `*c1c(C)cc(C(c2cccnc2)c2cc(C)c(N3C(=O)CC(Nc4cccc(NC5CC(=O)N(*)C5=O)c4)C3=O)c(C)c2)cc1C` (repeat unit) displayed a glass transition temperature of 224.00 °C. Next, `*c1cc(Br)c(-c2c(Br)cc(N3C(=O)c4ccc(-c5ccc6c(c5)C(=O)N(*)C6=O)cc4C3=O)cc2C(=O)OCCCCCCCCCCCCCCCC)c(C(=O)OCCCCCCCCCCCCCCCC)c1` (repeat unit): 92.00 °C; `*c1cc(Br)c(-c2c(Br)cc(N3C(=O)c4ccc(-c5ccc6c(c5)C(=O)N(*)C6=O)cc4C3=O)cc2C(=O)OCCCCCCCCCCCCCCCCCC)c(C(=O)OCCCCCCCCCCCCCCCCCC)c1` (repeat unit): 83.50 °C. As for `*c1cc(C(=O)NCCCCCC)cc(N2C(=O)c3ccc(-c4ccc5c(c4)C(=O)N(*)C5=O)cc3C2=O)c1` (repeat unit), the glass transition temperature stood at 256.90 °C. Next, `*c1cc(C(=O)NCCCCCCCC)cc(N2C(=O)c3ccc(-c4ccc5c(c4)C(=O)N(*)C5=O)cc3C2=O)c1` (repeat unit): 245.50 °C. `*c1cc(C(=O)NCCCCCCCCCC)cc(N2C(=O)c3ccc(-c4ccc5c(c4)C(=O)N(*)C5=O)cc3C2=O)c1` (repeat unit) displayed a glass transition temperature of 245.10 °C. In turn, `*c1cc(C(=O)NCCCCCCCCCCCCCC)cc(N2C(=O)c3ccc(-c4ccc5c(c4)C(=O)N(*)C5=O)cc3C2=O)c1` (repeat unit) showed a glass transition temperature of 247.60 °C.

In the case of `*c1cc(C(=O)O)cc(N2C(=O)CC(C3CC4C(=O)N(*)C(=O)C4c4ccccc43)C2=O)c1` (repeat unit), the glass transition temperature amounted to 360.00 °C.

On to `*c1cc(C(=O)OCCCCC)cc(N2C(=O)CC(C3Cc4ccccc4C4C(=O)N(*)C(=O)C43)C2=O)c1` (repeat unit), for which the glass transition temperature is 219.00 °C.

Compound `*c1cc(C(=O)Oc2ccc(-c3ccc(O[Si](C)(C)C(C)(C)C)cc3)cc2)cc(N2C(=O)c3ccc(-c4ccc5c(c4)C(=O)N(*)C5=O)cc3C2=O)c1` (repeat unit) showed a glass transition temperature of 230.00 °C.

Turning to `*c1cc(C(=O)Oc2cccc3cccnc23)c(*)s1` (repeat unit), the glass transition temperature came to 154.00 °C. Turning to `*c1cc(C(C(=O)OC)C(=O)OC)c(*)s1` (repeat unit), the glass transition temperature is -20.10 °C. As to `*c1cc(C(C)(C)c2ccc(O)cc2)cc(*)c1O` (repeat unit), the glass transition temperature was 135.00 °C.

In turn, `*c1cc(C)c(-c2c(C)cc(N3C(=O)c4ccc(-c5ccc6c(c5)C(=O)N(*)C6=O)cc4C3=O)cc2C)c(C)c1` (repeat unit) registered a glass transition temperature of 280.00 °C. `*c1cc(C)c(Cc2cc(C)c(N3C(=O)c4ccc(Oc5ccc(Oc6ccc7c(c6)C(=O)N(*)C7=O)cc5)cc4C3=O)cc2C)cc1C` (repeat unit) had a glass transition temperature of 278.00 °C. Take `*c1ccc(C(=O)Oc2c(C)cc(C(c3cccnc3)c3cc(C)c(OC(=O)c4ccc(N5C(=O)CC(Nc6ccc(Cc7ccc(NC8CC(=O)N(*)C8=O)cc7)cc6)C5=O)cc4)c(C)c3)cc2C)cc1` (repeat unit): the glass transition temperature was found to be 186.00 °C. In the case of `*c1ccc(Oc2c(C)cc(C(C)(C)c3cc(C)c(Oc4ccc(N5C(=O)c6ccc(Oc7ccc(C8(c9ccc(Oc%10ccc%11c(c%10)C(=O)N(*)C%11=O)cc9)CCC(c9ccccc9)CC8)cc7)cc6C5=O)cc4)c(C)c3)cc2C)cc1` (repeat unit), the glass transition temperature stood at 232.00 °C. `*c1ccc(Oc2c(C)cc(C(c3cccnc3)c3cc(C)c(Oc4ccc(N5C(=O)CC(Nc6ccc(Cc7ccc(NC8CC(=O)N(*)C8=O)cc7)cc6)C5=O)cc4)c(C)c3)cc2C)cc1` (repeat unit) showed a glass transition temperature of 201.00 °C.

`*c1ccc(Oc2ccc(S(=O)(=O)c3ccc(C)cc3)cc2)c(-n2c(=O)c3cc4c(=O)n(*)c(=O)c4cc3c2=O)c1` (repeat unit) came in with a glass transition temperature of 320.00 °C. Turning to `*c1ccc2c(c1)C(=O)N(c1c(C)cc(-c3cc(C)c(N4C(=O)c5ccc(C(*)(C(F)(F)F)C(F)(F)F)cc5C4=O)c4ccccc34)c3ccccc13)C2=O` (repeat unit), the glass transition temperature turned out to be 403.00 °C. For the compound `*c1ccc2c(c1)C(=O)N(c1c(C)cc(C3(c4cc(C)c(N5C(=O)c6ccc(C(*)(C(F)(F)F)C(F)(F)F)cc6C5=O)c(C)c4)c4ccccc4-c4ccccc43)cc1C)C2=O` (repeat unit), the glass transition temperature stood at 361.00 °C.

In the case of `*c1ccc2c(c1)C(=O)N(c1cc(Oc3c(C)cc(-c4cc(C)c(Oc5cc(N6C(=O)c7ccc(C(*)(C(F)(F)F)C(F)(F)F)cc7C6=O)cc(C(F)(F)F)c5)c(C)c4)cc3C)cc(C(F)(F)F)c1)C2=O` (repeat unit), the glass transition temperature is 264.80 °C. Next, `*c1cccc(P(=O)(c2ccccc2)c2cccc(N3C(=O)c4ccc(NC(=O)OCCOc5c(Br)cc(C(C)(C)c6cc(Br)c(OCCOC(=O)Nc7ccc8c(c7)C(=O)N(*)C8=O)c(Br)c6)cc5Br)cc4C3=O)c2)c1` (repeat unit): 201.00 °C; `*c1cccc(P(C)(=O)c2cccc(N3C(=O)c4ccc(NC(=O)OCCOc5c(Br)cc(C(C)(C)c6cc(Br)c(OCCOC(=O)Nc7ccc8c(c7)C(=O)N(*)C8=O)c(Br)c6)cc5Br)cc4C3=O)c2)c1` (repeat unit): 191.00 °C.
